Data: patent publication US8075874B2, “Methods for disinfecting and removing smear layer from tooth surfaces” (Dentsply International, Inc., priority 2002, dated 2011)

Key:
[1] = Removal of smear layer from root canal walls (SEM); conditions: extracted human teeth; 5 min contact; ADD group instrumented with 1% sodium hypochlorite as irrigant
Source text: Extracted maxillary and mandibular human teeth were used for this study. The working lengths of these teeth were between 21-25 millimeters. The teeth were scaled of any calculus and other surface debris (soft tissue and/or alveolar bone) using hand scalers. After preparing conventional access preparations through the incisal or occlusal surfaces of the test teeth, a K-type file (size 10) was used to determine the working length of each tooth by penetrating the apical foramen and pulling back to the clinical apical foramen. […] The apex of each tooth was enlarged to size 30 files.
After complete cleaning and shaping, the canals were irrigated with 1 ml of NaOCl and a barbed broach wrapped with cotton was taken to the canal terminus and left for five minutes to ensure uniform direct contact of the irrigant with the entire canal. Upon removal of the barbed broach, the canal was irrigated with 4 ml of NaOCl and rinsed with 10 ml of distilled water. Group 2: NSET was performed using 1% sodium hypochlorite as root canal irrigant. […] Upon removal of the barbed broach, the canal was irrigated with 4 ml of ADD and rinsed with 10 ml of distilled water. […] The presence or absence of smear layer at the coronal, middle, and apical portion of each canal was evaluated. The erosion of dentinal tubules was also assessed at different levels of each canal.

[2] = Removal of smear layer from coronal cavity preparations (SEM); conditions: third molars, Class I preparations; solution left 5 minutes
Protocol: Sound third molars were collected and stored in deionized water. Class I preparations were made following conventionally accepted procedures in the occlusal surfaces of the teeth. The teeth were randomly divided into two groups. […] After this treatment each preparation was rinsed with copious amounts of water to eliminate the residual effect of sodium hypochlorite. Group 2: ADD solution was left in the cavity for 5 minutes. After this treatment each preparation was rinsed with copious amounts of distilled water to eliminate the residual effect of ADD. After irrigation, the crowns were split in half using a diamond saw and constant water spray. Half of each sample was placed into a gluteraldehyde solution for 24 h. The fixed specimens were then rinsed twice by a sodium buffered solution (pH 7.2), treated with osmium tetraoxide for one hour, rinsed with ascending concentrations of ethyl alcohol 30%-100%, and then placed in a dessicator for 24 h. […] The presence or absence of smear layer on the walls of each cavity was evaluated. The erosion of dentinal tubules was also assessed.

[3] = Removal of smear layer from prepared crown preparations (SEM); conditions: saturated cotton pellet left 5 minutes
Protocol: Sound third molars were collected and stored in deionized water. Crown preparations were made following conventionally accepted procedures. The samples were randomly divided into two groups.
After this treatment each preparation was rinsed with copious amounts of distilled water to eliminate the residual effect of sodium hypochlorite.
Group 2: A cotton pellet saturated with ADD solution was left on the crown preparations for 5 minutes. After this treatment each preparation was rinsed with copious amounts of distilled water to eliminate residual ADD.
After irrigation, the crown preparations were split in half using a diamond saw and constant water spray. Half of each sample was placed into a gluteraldehyde solution for 24 h. The fixed specimens were then rinsed twice by a sodium buffered solution (pH 7.2), treated with osmium tetraoxide for one hour, rinsed with ascending concentrations of ethyl alcohol 30%-100%, and then placed in a dessicator for 24 h. Finally, each specimen was mounted on a special button, and coated with 25 μm of gold-palladium (Au—Pd) (Wakabayashi et al., 1995). The presence or absence of smear layer on the walls of each cavity was evaluated. The erosion of dentinal tubules was also assessed.

[4] = Removal of smear layer from root surfaces of teeth (SEM); conditions: saturated cotton pellet left 5 minutes
Protocol: The coronal one-third root surfaces of these teeth were curetted following conventionally accepted procedures. The samples were randomly divided into two groups.
After this treatment each root surface was rinsed with copious amounts of distilled water to eliminate the residual effect of sodium hypochlorite.
Group 2: A cotton pellet saturated with ADD solution was left on the root surface preparations for 5 minutes. After this treatment each preparation was rinsed with copious amounts of distilled water to eliminate the residual effect of ADD.
After irrigation, the entire tooth was split in half using a diamond saw and constant water spray. Half of each sample was placed into a gluteraldehyde solution for 24 h. The fixed specimens were then rinsed twice by a sodium buffered solution (pH 7.2), treated with osmium tetraoxide for one hour, rinsed with ascending concentrations of ethyl alcohol 30%-100%, and then placed in a dessicator for 24 h. Finally, each specimen was mounted on a special button, and coated with 25 μm of gold-palladium (Au—Pd) (Wakabayashi et al., 1995). The presence or absence of smear layer on the root surfaces was evaluated. The erosion of dentinal tubules was also assessed.

[5] = Removal of smear layer from root end cavity preparations (SEM); parameters: species or system human; conditions: solution left in cavity five minutes
Protocol: Extracted, human single-rooted teeth were used in this part of the experiment.
The working length of each canal was determined by placing and moving a #15 K file apically in the canal until it exited from the apical foramen.
The access cavities were closed with Cavit. The roots were then wrapped in moist gauze and stored in a closed glass bottle at room temperature and 100% humidity for one week.
Two coats of nail polish were applied to the external surface of each root.
Apical cavity preparations were made in each of the roots. A #1 round bur in a high-speed handpiece with water coolant was used to create a small opening into the gutta-percha filling material.
The roots were then randomly divided into two groups. […] The solution was left in the cavity for five minutes and then rinsed with 10 ml of distilled water. In Group 2, the preparations were rinsed with 5 ml of ADD. This solution was also left in the root end cavities for five minutes and then rinsed with 5 ml of distilled water. After drying with paper points, the roots were split in halves using a slow speed diamond saw (Labut Agar Scientific, Cambridge, England).
Half of each sample was placed into a gluteraldehyde solution for 24 h. […] The presence or absence of smear layer on the root end cavity preparations was evaluated. The erosion of dentinal tubules was also assessed.

Enterococcus faecalis [6] = experiment: Zone of inhibition on inoculated TSA plates; format: cell-based; conditions: E. faecalis; for bactericidal effect upon dilution (zone of inhibition): diluted five- or ten-fold
Protocol: In the first test, the zone of inhibition was measured on plates inoculated with Enterococcus faecalis. An overnight culture of E. faecalis (ATCC 4082) was standardized to 0.11 optical density (O.D.) measured at 570 nm. One hundred microliters of the microorganism was spread onto a trypticase soy agar (TSA) plate with the use of a sterile L-shaped glass rod. One-quarter inch sterile S & S filter paper (Schleicher & Schuell) was placed in each of the four quadrants of the TSA plate. […] Eight replicates were prepared for each of the sample solutions. The plates were incubated overnight at 37° C. for 24 hours and the zones of inhibition were measured in millimeters.

[7] = test system: root canals infected with whole saliva; experiment: Disinfection of human root canals infected with whole saliva
Source text: It will be apparent to those of skill in the art that a solution such as the one described herein (i.e., one that has improved biocompatibility and is effective in a shorter period of time than previously known treatments) is highly desirable, particularly in the health care fields. Studies have also shown that, unlike other previously known dental irrigants, the solution of the present invention maintains the desired antimicrobial effect at dilutions up to 1:200. […] In a further study undertaken to evaluate the antimicrobial properties of the presently described solution, human root canals were infected with whole saliva and then treated with either 5.25% NaOCl or a solution of doxycycline, polysorbate 80, and citric acid. While the NaOCl effectively disinfected only 37 out of 60 teeth, the solution of the present invention disinfected 59 out of 60 teeth. The importance and desirability of such improved antimicrobial properties can be easily appreciated, particularly by those of skill in the art.

Enterococcus faecalis [8] = experiment: Minimum inhibitory concentration (serial dilution, turbidity); format: cell-based
Protocol: In the second test, the minimum inhibitory concentration (MIC) was measured. E. faecalis was cultured overnight and the concentration was adjusted to 0.11 O.D. at 570 nm. The test solutions were serially diluted from 1:2 up to 1:2048 dilutions. One ml of 2× trypticase soy broth (TSB) and the same amount of a test solution were mixed in various tubes. One hundred microliters of the standardized E. faecalis was added into each of the test tubes and were incubated overnight at 37° C. The presence or absence of turbidity was determined the following day.

[Na+].[O-]Cl [5.25% NaOCl, sodium hypochlorite]
presence or absence of smear layer on root canal walls [1]: presence of smear layer on the entire root canal walls of all teeth | presence or absence of smear layer on cavity walls [2]: presence of smear layer on the walls of all teeth | presence or absence of smear layer on crown preparations [3]: presence of smear layer on the surface of all crowns | presence or absence of smear layer on root surfaces [4]: presence of smear layer on the surface of all roots | presence or absence of smear layer on root end cavity preparations [5]: presence of smear layer on the surface of all cavity preparations | bactericidal effect upon dilution (zone of inhibition) (Enterococcus faecalis [6]): some bactericidal effect | zone of inhibition, undiluted versus diluted (Enterococcus faecalis [6]; undiluted, 1:5, 1:10): more effective when undiluted than at 1:5 or 1:10 dilution | teeth disinfected [7]: 37 out of 60

O=C(O)CN(CCN(CC(=O)O)CC(=O)O)CC(=O)O [EDTA, ethylenediamine tetraacetic acid]
bactericidal effect upon dilution (zone of inhibition) (Enterococcus faecalis [6]): no bactericidal properties | dilution up to which solution is effective (minimum inhibitory concentration test) (Enterococcus faecalis [8]; E. faecalis, overnight at 37° C., turbidity): no antibacterial effects at any dilution level | dilution limit of antimicrobial / bactericidal effect (Enterococcus faecalis [8]; summary statement in description): ineffective in anything other than an undiluted state
